According to patent US4147787A, “4,5,6,7-Tetrahydro-thieno[2,3-c]-and [3,2-c]-pyridines, and therapeutic compositions containing the same” (Parcor, priority 1977, dated 1979):

Assays:
[1] = Acute toxicity (LD50, method according to Miller and Tainter); conditions: mouse, in vivo, mice, intravenous, read-out: LD50 /24h/kg body weight
[2] = tested on: A.D.P. induced blood-platelet aggregation; assay: A.D.P. induced blood-platelet aggregation; format: in vivo, Wistar rats; conditions: Rattus norvegicus, po; 100 mg/kg orally, rats, 3 hours after treatment, 10 μM A.D.P. solution; read-out: Percent inhibition of blood-platelet aggregation, A.D.P.
Method: (§1) A blood sample is taken from the jugular vein of Wistar rats. From this citrated blood and after centifugation, a plasma is reconstituted which contains 600,000 ± 20,000 blood-platelets per ml, which plasma is then used in all aggregation determinations.
(§2) 0.4 ml plasma is placed in a siliconized tube provided with a magnet bar, also siliconized. The tube is introduced into an aggregometer connected to an apparatus which records optical density variations. When light transmission has attained a stable value, 0.5 ml of a solution containing 10 μM A.D.P. (adenosinediphosphate) is added to the tube.
(§3) Blood-platelet aggregation induces an increase of light transmission, followed by a decrease subsequent to the deaggregation phase.
(§4) Different groups of 20 rats each are used, each group being orally administered 100 mg/kg of a test derivative.

[3] = tested on: Collagen-induced blood-platelet aggregation; assay: Collagen-induced blood-platelet aggregation; format: in vivo, Wistar rats; conditions: Rattus norvegicus, po; 100 mg/kg orally, rats, 3 hours after treatment; read-out: Percent inhibition of blood-platelet aggregation, Collagen
Method: as §1, §2, §3
The A.D.P. solution is substituted with a collagen (bovine tendon extract) solution.
as §4

[4] = tested on: rat globules (red corpuscles); assay: In vitro anti-sludge activity, preventive treatment (protamine sulfate); format: cell-based
Method: (§5) Said activity was investigated in vitro and in vivo in rats.
(§6) Thrice washed rat globules are diluted to 1/250 in physiological saline. In each of 5 tubes are placed 0.6 ml of this suspension and 0.2 ml physiological saline. To each tube is then added 0-25-50-100 and 200 μg, respectively, of the test derivative contained in 0.2 ml solution. After incubation for one hour at 37° C., 0.2 ml of a solution containing 125 μg/ml protamine sulfate are added, after which the tube is then incubated again for 0.5 hour at 37° C. The globules of each tube are then examined with a Mallases cell, and the percent free globules and the percent aggregates formed by 2, 3, 4, 5 etc.. globules is then recorded.

[5] = tested on: rat globules (red corpuscles); assay: In vitro anti-sludge activity, curative procedure (protamine sulfate); format: cell-based; conditions: 25 μg
Method: as §5, §6
The experiment was repeated according to a "curvative" procedure; the red corpuscles were first contacted with protamine sulfate and, after incubation for 0.5 hour, 0.2 ml containing 25 μg of test derivative were added thereto, which operation is followed by another incubation for one hour at 37° C. The results obtained are reported in Table III, in which the percent agglomerates as a function of size is indicated.

O=C(O)[C@@H]1NCc2ccsc2[C@@H]1O (relative stereo) [Example 1, 6-Carboxy-7-hydroxy-4,5,6,7-tetrahydro-thieno[3,2-c]pyridine]
9%: percent agglomerates, size 2 ([4]; 200 μg)
24%: percent agglomerates, size 2 ([4]; 50 μg)
69%: percent free red corpuscles (size of agglomerates 1) ([4]; 50 μg)
64%: percent free red corpuscles (size of agglomerates 1) ([4]; 25 μg)
4%: percent agglomerates, size 3 ([4]; 100 μg)
89%: percent free red corpuscles (size of agglomerates 1) ([4]; 200 μg)
11%: percent agglomerates, size 3 ([4]; 25 μg)
5%: percent agglomerates, size 3 ([4]; 50 μg)
63.8%: inhibition at 100 mg/kg [2]
25%: percent agglomerates, size 2 ([4]; 25 μg)
0%: percent agglomerates, size 4 ([4]; 25 μg) | percent agglomerates, size 5 ([4]; 25 μg) | percent agglomerates, size 6 ([4]; 25 μg) | percent agglomerates, size 7 ([4]; 25 μg) | percent agglomerates, size 8 ([4]; 25 μg) | percent agglomerates, size 9 ([4]; 25 μg) | percent agglomerates, size 10 ([4]; 25 μg) | percent agglomerates, size 11 ([4]; 25 μg) | percent agglomerates, size 12 ([4]; 25 μg) | percent agglomerates, size 13 ([4]; 25 μg) | percent agglomerates, size 5 ([4]; 50 μg) | percent agglomerates, size 6 ([4]; 50 μg) | percent agglomerates, size 7 ([4]; 50 μg) | percent agglomerates, size 8 ([4]; 50 μg) | percent agglomerates, size 9 ([4]; 50 μg) | percent agglomerates, size 10 ([4]; 50 μg) | percent agglomerates, size 11 ([4]; 50 μg) | percent agglomerates, size 12 ([4]; 50 μg) | percent agglomerates, size 13 ([4]; 50 μg) | percent agglomerates, size 5 ([4]; 100 μg) | percent agglomerates, size 6 ([4]; 100 μg) | percent agglomerates, size 7 ([4]; 100 μg) | percent agglomerates, size 8 ([4]; 100 μg) | percent agglomerates, size 9 ([4]; 100 μg) | percent agglomerates, size 10 ([4]; 100 μg) | percent agglomerates, size 11 ([4]; 100 μg) | percent agglomerates, size 12 ([4]; 100 μg) | percent agglomerates, size 13 ([4]; 100 μg) | percent agglomerates, size 4 ([4]; 200 μg) | percent agglomerates, size 5 ([4]; 200 μg) | percent agglomerates, size 6 ([4]; 200 μg) | percent agglomerates, size 7 ([4]; 200 μg) | percent agglomerates, size 8 ([4]; 200 μg) | percent agglomerates, size 9 ([4]; 200 μg) | percent agglomerates, size 10 ([4]; 200 μg) | percent agglomerates, size 11 ([4]; 200 μg) | percent agglomerates, size 12 ([4]; 200 μg) | percent agglomerates, size 13 ([4]; 200 μg)
86%: percent free red corpuscles (size of agglomerates 1) ([4]; 100 μg)
118 mg/kg: LD50 at 24 h [1]
7%: percent agglomerates, size 2 ([4]; 100 μg)
95.8%: inhibition at 100 mg/kg [3]
2%: percent agglomerates, size 4 ([4]; 50 μg) | percent agglomerates, size 3 ([4]; 200 μg)
3%: percent agglomerates, size 4 ([4]; 100 μg)

O=C(O)C1Cc2sccc2CN1Cc1ccccc1Cl (centres unmarked) [Example 23, 5-o-Chlorobenzyl-6-carboxy-4,5,6,7-tetrahydro-thieno[3,2-c]pyridine]
2%: percent agglomerates, size 4 ([4]; 200 μg)
21%: percent agglomerates, size 2 ([4]; 25 μg)
83%: percent free red corpuscles (size of agglomerates 1) ([4]; 200 μg)
1%: percent agglomerates, size 4 ([4]; 100 μg) | percent agglomerates, size 4 [5]
60%: percent free red corpuscles (size of agglomerates 1) ([4]; 25 μg)
3%: percent agglomerates, size 4 ([4]; 25 μg)
5%: percent agglomerates, size 3 ([4]; 100 μg)
6%: percent agglomerates, size 3 ([4]; 50 μg)
14%: percent agglomerates, size 2 ([4]; 100 μg)
63.9%: inhibition at 100 mg/kg [2]
16%: percent agglomerates, size 3 ([4]; 25 μg)
95.2%: inhibition at 100 mg/kg [3]
85%: percent free red corpuscles (size of agglomerates 1) [5]
180 mg/kg: LD50 at 24 h [1]
0%: percent agglomerates, size 5 ([4]; 25 μg) | percent agglomerates, size 6 ([4]; 25 μg) | percent agglomerates, size 7 ([4]; 25 μg) | percent agglomerates, size 8 ([4]; 25 μg) | percent agglomerates, size 9 ([4]; 25 μg) | percent agglomerates, size 10 ([4]; 25 μg) | percent agglomerates, size 11 ([4]; 25 μg) | percent agglomerates, size 12 ([4]; 25 μg) | percent agglomerates, size 13 ([4]; 25 μg) | percent agglomerates, size 5 ([4]; 50 μg) | percent agglomerates, size 6 ([4]; 50 μg) | percent agglomerates, size 7 ([4]; 50 μg) | percent agglomerates, size 8 ([4]; 50 μg) | percent agglomerates, size 9 ([4]; 50 μg) | percent agglomerates, size 10 ([4]; 50 μg) | percent agglomerates, size 11 ([4]; 50 μg) | percent agglomerates, size 12 ([4]; 50 μg) | percent agglomerates, size 13 ([4]; 50 μg) | percent agglomerates, size 5 ([4]; 100 μg) | percent agglomerates, size 6 ([4]; 100 μg) | percent agglomerates, size 7 ([4]; 100 μg) | percent agglomerates, size 8 ([4]; 100 μg) | percent agglomerates, size 9 ([4]; 100 μg) | percent agglomerates, size 10 ([4]; 100 μg) | percent agglomerates, size 11 ([4]; 100 μg) | percent agglomerates, size 12 ([4]; 100 μg) | percent agglomerates, size 13 ([4]; 100 μg) | percent agglomerates, size 5 ([4]; 200 μg) | percent agglomerates, size 6 ([4]; 200 μg) | percent agglomerates, size 7 ([4]; 200 μg) | percent agglomerates, size 8 ([4]; 200 μg) | percent agglomerates, size 9 ([4]; 200 μg) | percent agglomerates, size 10 ([4]; 200 μg) | percent agglomerates, size 11 ([4]; 200 μg) | percent agglomerates, size 12 ([4]; 200 μg) | percent agglomerates, size 13 ([4]; 200 μg) | percent agglomerates, size 5 [5] | percent agglomerates, size 6 [5] | percent agglomerates, size 7 [5] | percent agglomerates, size 8 [5] | percent agglomerates, size 9 [5] | percent agglomerates, size 10 [5]
10%: percent agglomerates, size 2 [5]
11%: percent agglomerates, size 2 ([4]; 200 μg)
4%: percent agglomerates, size 4 ([4]; 50 μg) | percent agglomerates, size 3 ([4]; 200 μg) | percent agglomerates, size 3 [5]
25%: percent agglomerates, size 2 ([4]; 50 μg)
78%: percent free red corpuscles (size of agglomerates 1) ([4]; 100 μg)
65%: percent free red corpuscles (size of agglomerates 1) ([4]; 50 μg)

O=C(OCc1ccccc1Cl)C1Cc2sccc2CN1Cc1ccccc1Cl (centres unmarked) [Example 13, 5-o-Chlorobenzyl-6-o-chlorobenzyloxycarbonyl-4,5,6,7-tetrahydro-thieno[3,2-c]pyridine]
9%: percent agglomerates, size 3 ([4]; 25 μg) | percent agglomerates, size 2 ([4]; 200 μg) | percent agglomerates, size 2 [5]
64.4%: inhibition at 100 mg/kg [2]
87%: percent free red corpuscles (size of agglomerates 1) ([4]; 100 μg)
65%: percent free red corpuscles (size of agglomerates 1) ([4]; 25 μg)
68%: percent free red corpuscles (size of agglomerates 1) ([4]; 50 μg)
2%: percent agglomerates, size 4 ([4]; 100 μg)
4%: percent agglomerates, size 4 ([4]; 50 μg)
90%: percent free red corpuscles (size of agglomerates 1) ([4]; 200 μg)
1%: percent agglomerates, size 3 ([4]; 200 μg)
0%: percent agglomerates, size 4 ([4]; 25 μg) | percent agglomerates, size 5 ([4]; 25 μg) | percent agglomerates, size 6 ([4]; 25 μg) | percent agglomerates, size 7 ([4]; 25 μg) | percent agglomerates, size 8 ([4]; 25 μg) | percent agglomerates, size 9 ([4]; 25 μg) | percent agglomerates, size 10 ([4]; 25 μg) | percent agglomerates, size 11 ([4]; 25 μg) | percent agglomerates, size 12 ([4]; 25 μg) | percent agglomerates, size 13 ([4]; 25 μg) | percent agglomerates, size 5 ([4]; 50 μg) | percent agglomerates, size 6 ([4]; 50 μg) | percent agglomerates, size 7 ([4]; 50 μg) | percent agglomerates, size 8 ([4]; 50 μg) | percent agglomerates, size 9 ([4]; 50 μg) | percent agglomerates, size 10 ([4]; 50 μg) | percent agglomerates, size 11 ([4]; 50 μg) | percent agglomerates, size 12 ([4]; 50 μg) | percent agglomerates, size 13 ([4]; 50 μg) | percent agglomerates, size 5 ([4]; 100 μg) | percent agglomerates, size 6 ([4]; 100 μg) | percent agglomerates, size 7 ([4]; 100 μg) | percent agglomerates, size 8 ([4]; 100 μg) | percent agglomerates, size 9 ([4]; 100 μg) | percent agglomerates, size 10 ([4]; 100 μg) | percent agglomerates, size 11 ([4]; 100 μg) | percent agglomerates, size 12 ([4]; 100 μg) | percent agglomerates, size 13 ([4]; 100 μg) | percent agglomerates, size 4 ([4]; 200 μg) | percent agglomerates, size 5 ([4]; 200 μg) | percent agglomerates, size 6 ([4]; 200 μg) | percent agglomerates, size 7 ([4]; 200 μg) | percent agglomerates, size 8 ([4]; 200 μg) | percent agglomerates, size 9 ([4]; 200 μg) | percent agglomerates, size 10 ([4]; 200 μg) | percent agglomerates, size 11 ([4]; 200 μg) | percent agglomerates, size 12 ([4]; 200 μg) | percent agglomerates, size 13 ([4]; 200 μg) | percent agglomerates, size 4 [5] | percent agglomerates, size 5 [5] | percent agglomerates, size 6 [5] | percent agglomerates, size 7 [5] | percent agglomerates, size 8 [5] | percent agglomerates, size 9 [5] | percent agglomerates, size 10 [5]
5%: percent agglomerates, size 3 ([4]; 50 μg) | percent agglomerates, size 3 [5]
86%: percent free red corpuscles (size of agglomerates 1) [5]
96.1%: inhibition at 100 mg/kg [3]
23%: percent agglomerates, size 2 ([4]; 50 μg)
8%: percent agglomerates, size 2 ([4]; 100 μg)
3%: percent agglomerates, size 3 ([4]; 100 μg)
26%: percent agglomerates, size 2 ([4]; 25 μg)

CN1Cc2ccsc2CC1C(=O)O (centres unmarked) [Example 25, 5-Methyl-6-carboxy-4,5,6,7-tetrahydro-thieno[3,2-c]pyridine]
61.6%: inhibition at 100 mg/kg [2]
325 mg/kg: LD50 at 24 h [1]
92.4%: inhibition at 100 mg/kg [3]

O=C(O)C1Cc2sccc2CN1 (centres unmarked) [Example 2, 6-Carboxy-4,5,6,7-tetrahydro-thieno[3,2-c]pyridine]
235 mg/kg: LD50 at 24 h [1]
